Experimental data: ChEMBL document CHEMBL1201862, “PubChem BioAssay data set” (2004)
Several values for one entry are separate records, joined by “and”; a condition that tells them apart may be missing. Identical values can stand only once. Activity calls are given as the source filed them.

Key:
[1] = system: Escherichia coli; assay: microbe, parasite or virus in culture
[2] = system: Escherichia coli; assay: microbe, parasite or virus in culture; remark: listed apart in the source
[3] = biological target: ORF 73 (Human herpesvirus 8, UniProt O40947); assay: inhibitors of C-LANA binding to LBS DNA, dose response, biochemical, fluorescence polarization, cherry-picked samples (AID 504725); design: species or system Human gammaherpesvirus 8;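 further: fluorescence polarization of a labeled DNA duplex reporting LANA DNA binding; potency is for inhibitors that block LANA binding to the DNA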
Sequence of ORF 73 (O40947 whole entry): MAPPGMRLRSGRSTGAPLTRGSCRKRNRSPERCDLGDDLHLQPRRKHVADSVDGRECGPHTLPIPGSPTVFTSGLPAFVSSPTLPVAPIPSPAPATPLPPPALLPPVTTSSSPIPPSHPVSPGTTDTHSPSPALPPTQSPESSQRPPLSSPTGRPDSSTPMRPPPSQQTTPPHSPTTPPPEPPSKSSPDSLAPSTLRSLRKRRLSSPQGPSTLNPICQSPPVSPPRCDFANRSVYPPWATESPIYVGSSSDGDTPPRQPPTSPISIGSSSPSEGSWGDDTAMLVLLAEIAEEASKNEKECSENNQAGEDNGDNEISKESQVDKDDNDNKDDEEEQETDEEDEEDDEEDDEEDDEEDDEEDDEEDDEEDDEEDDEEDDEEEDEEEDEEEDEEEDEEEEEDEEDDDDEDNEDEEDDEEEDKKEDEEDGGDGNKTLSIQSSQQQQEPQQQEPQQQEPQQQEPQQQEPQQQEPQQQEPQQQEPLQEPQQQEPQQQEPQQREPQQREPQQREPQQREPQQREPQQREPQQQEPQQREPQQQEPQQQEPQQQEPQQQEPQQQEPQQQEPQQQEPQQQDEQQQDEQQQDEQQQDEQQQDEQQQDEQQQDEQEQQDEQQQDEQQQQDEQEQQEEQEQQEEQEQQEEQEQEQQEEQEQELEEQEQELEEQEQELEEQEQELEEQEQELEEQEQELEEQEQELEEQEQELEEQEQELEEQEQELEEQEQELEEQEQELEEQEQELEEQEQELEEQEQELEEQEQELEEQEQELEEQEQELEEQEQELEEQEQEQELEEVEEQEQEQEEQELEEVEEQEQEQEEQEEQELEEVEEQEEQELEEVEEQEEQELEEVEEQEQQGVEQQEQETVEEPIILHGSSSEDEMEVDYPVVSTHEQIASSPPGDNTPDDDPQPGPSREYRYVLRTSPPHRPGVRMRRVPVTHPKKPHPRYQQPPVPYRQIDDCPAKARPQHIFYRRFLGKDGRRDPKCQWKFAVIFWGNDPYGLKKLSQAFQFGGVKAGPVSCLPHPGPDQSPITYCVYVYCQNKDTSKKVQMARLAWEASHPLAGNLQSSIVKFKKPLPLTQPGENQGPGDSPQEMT

[4] = biological target: Eukaryotic translation initiation factor 4E (Mus musculus, UniProt P63073); assay: eIF4E–eIF4G protein interaction inhibitors, dose response, biochemical, TR-FRET (AID 855); type: functional;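 further: potency for disrupting eIF4E binding to eIF4GI seen as loss of FRET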
Sequence of Eukaryotic translation initiation factor 4E (P63073 whole entry): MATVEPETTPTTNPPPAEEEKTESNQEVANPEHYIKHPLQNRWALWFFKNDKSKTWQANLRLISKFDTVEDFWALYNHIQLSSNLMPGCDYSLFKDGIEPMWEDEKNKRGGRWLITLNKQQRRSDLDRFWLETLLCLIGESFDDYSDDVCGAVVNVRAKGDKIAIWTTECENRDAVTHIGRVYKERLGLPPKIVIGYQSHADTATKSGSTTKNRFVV

[5] = system: HeLa; assay: HeLa cell cytotoxicity, dose response, cytotoxicity control, 24 h, cherry-picked samples (AID 504726); type: functional, cell-based; conditions: Homo sapiens;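 further: potency for cytotoxicity as loss of luminescence signal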
[6] = biological target: T1, Corticotropin-releasing factor receptor 2/Corticotropin-releasing factor-binding protein (Homo sapiens, UniProt P24387+Q13324); assay: activators of CRF receptor 2 with binding protein – uHTS hits, confirmation (AID 602473); type: functional; conditions: read-out: EC50_Mean
T1 sequence (Q13324 whole entry): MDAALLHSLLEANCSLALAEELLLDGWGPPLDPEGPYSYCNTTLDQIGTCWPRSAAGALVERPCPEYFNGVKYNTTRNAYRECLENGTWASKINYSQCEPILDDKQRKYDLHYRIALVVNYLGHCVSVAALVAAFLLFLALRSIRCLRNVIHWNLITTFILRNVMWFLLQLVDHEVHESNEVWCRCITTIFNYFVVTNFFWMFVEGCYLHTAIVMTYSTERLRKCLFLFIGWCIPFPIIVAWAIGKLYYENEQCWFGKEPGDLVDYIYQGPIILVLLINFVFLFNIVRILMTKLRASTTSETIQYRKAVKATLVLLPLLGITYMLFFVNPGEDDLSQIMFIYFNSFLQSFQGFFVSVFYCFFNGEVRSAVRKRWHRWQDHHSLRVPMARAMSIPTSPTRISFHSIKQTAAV
T1 sequence (P24387 whole entry): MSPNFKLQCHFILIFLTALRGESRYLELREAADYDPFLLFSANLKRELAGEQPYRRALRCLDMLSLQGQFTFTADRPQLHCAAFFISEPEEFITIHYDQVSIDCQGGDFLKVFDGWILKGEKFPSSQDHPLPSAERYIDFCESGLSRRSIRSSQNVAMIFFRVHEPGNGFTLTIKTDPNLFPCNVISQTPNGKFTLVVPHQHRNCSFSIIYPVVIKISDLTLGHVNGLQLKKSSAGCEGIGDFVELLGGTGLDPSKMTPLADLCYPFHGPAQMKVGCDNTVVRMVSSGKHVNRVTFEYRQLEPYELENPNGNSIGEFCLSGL

[7] = biological target: Keap1/Nrf2 (Homo sapiens, UniProt Q14145); assay: Keap1-Nrf2 protein-protein interaction inhibitors, dose response, biochemical, fluorescence polarization, cherry-picked samples (AID 588683)
Sequence of Keap1/Nrf2 (Q16236 whole entry): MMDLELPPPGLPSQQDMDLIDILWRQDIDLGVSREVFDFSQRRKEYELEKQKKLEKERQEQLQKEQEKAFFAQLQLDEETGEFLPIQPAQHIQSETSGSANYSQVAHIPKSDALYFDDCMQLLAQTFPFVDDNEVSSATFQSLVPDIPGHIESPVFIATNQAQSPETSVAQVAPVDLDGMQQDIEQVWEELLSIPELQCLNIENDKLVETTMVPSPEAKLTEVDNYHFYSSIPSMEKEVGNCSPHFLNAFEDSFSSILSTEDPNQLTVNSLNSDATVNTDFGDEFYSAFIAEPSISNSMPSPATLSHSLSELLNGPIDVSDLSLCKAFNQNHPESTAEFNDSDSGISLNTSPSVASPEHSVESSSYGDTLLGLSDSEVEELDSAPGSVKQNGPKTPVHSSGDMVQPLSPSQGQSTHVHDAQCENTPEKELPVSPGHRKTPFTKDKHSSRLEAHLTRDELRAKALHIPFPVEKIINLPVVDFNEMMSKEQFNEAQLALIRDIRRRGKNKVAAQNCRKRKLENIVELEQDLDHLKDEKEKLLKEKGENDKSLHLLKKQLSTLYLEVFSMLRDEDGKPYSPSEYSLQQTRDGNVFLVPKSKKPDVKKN
Sequence of Keap1/Nrf2 (Q14145 whole entry): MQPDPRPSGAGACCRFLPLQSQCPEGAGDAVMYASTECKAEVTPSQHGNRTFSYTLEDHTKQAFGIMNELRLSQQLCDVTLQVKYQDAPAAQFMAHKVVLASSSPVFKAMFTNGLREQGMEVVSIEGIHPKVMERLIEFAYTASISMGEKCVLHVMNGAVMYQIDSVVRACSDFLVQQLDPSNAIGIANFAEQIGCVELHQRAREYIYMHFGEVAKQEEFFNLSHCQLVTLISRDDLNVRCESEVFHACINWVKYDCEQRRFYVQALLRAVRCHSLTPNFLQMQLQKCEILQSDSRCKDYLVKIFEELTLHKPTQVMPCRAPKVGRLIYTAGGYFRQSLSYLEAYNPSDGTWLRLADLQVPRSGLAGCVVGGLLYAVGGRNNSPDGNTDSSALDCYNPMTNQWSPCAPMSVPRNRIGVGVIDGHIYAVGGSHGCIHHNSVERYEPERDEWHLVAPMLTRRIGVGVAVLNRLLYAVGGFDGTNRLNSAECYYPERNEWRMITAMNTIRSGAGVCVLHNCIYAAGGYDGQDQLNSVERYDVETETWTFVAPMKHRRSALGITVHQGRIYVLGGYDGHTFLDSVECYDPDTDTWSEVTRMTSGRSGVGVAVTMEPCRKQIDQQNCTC

[8] = system: Vero; assay: cells; type: functional, cell-based; conditions: Chlorocebus sabaeus
[9] = system: Vero; assay: cells; type: functional; conditions: Chlorocebus sabaeus
[10] = system: HEK293; assay: cytotoxicity in HEK293T NF-kB-Luc cells, SAR follow-up, cytotoxicity control for NF-kB activator project, cell-based, resazurin fluorescence (AID 493251); type: functional; conditions: Homo sapiens
[11] = system: HEK293; assay: SAR Analysis of small molecule inhibitors of T-cell specific antigen receptor-induced NF-kB activation in a HEK-293T cell line using a luminescence assay - Set 2. [Related pubchem assays (depositor defined):AID435003, AID435012, AID489026]; type: functional, cell-based; conditions: Homo sapiens
[12] = system: Jurkat; assay: SAR Analysis of small molecule inhibitors of T-cell specific antigen receptor-induced NF-kB activation in a Jurkat cell line using a luminescence assay - Set 2. [Related pubchem assays (depositor defined):AID435003, AID435012, AID465]; type: functional, cell-based; conditions: Homo sapiens
[13] = biological target: Beta Lactamase (Pseudomonas aeruginosa, UniProt Q932Y6); assay: beta-lactamase reporter inhibitor potency, dose response, artefact control for NOD2-RIPK2 interaction inhibitor project, BLA reporter cells, FRET fluorescence (AID 651552); type: functional, cell-based
[14] = HepG2 cell cytotoxicity, dose response, cytotoxicity control for Shn3 inhibitor project, CellTiter-Glo, cherry-picked (AID 624134); type: functional, cell-based
[15] = Shn3 3'UTR reporter inhibitors, dose response, cell-based, Clone20 osteoblasts, firefly luciferase, cherry-picked (AID 624132); type: functional;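 further: firefly luciferase luminescence from reporter carrying the Shn3 3'UTR in osteoblasts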
[16] = Fluorescence-based cell-based high throughput dose response assay for inhibitors of the interaction of nucleotide-binding oligomerization domain containing 2 (NOD2) and the receptor-interacting serine-threonine kinase 2 (RIPK2).; type: functional; conditions: Homo sapiens
[17] = control 3'UTR Renilla luciferase suppression, dose response, counter-screen for Shn3 inhibitor project, cell-based, Clone20-Shn3RL, cherry-picked (AID 624133); type: functional
[18] = biological target: Paired box protein Pax-8 (Homo sapiens, UniProt Q06710); assay: inhibitors of PAX8-driven TPO luciferase reporter, dose response, RMG-I cells, cherry-pick (AID 687027); type: functional, cell-based;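 further: luciferase reporter driven by Pax8 target thyroperoxidase promoter measured by SteadyGlo luminescence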
Sequence of Paired box protein Pax-8 (Q06710 whole entry): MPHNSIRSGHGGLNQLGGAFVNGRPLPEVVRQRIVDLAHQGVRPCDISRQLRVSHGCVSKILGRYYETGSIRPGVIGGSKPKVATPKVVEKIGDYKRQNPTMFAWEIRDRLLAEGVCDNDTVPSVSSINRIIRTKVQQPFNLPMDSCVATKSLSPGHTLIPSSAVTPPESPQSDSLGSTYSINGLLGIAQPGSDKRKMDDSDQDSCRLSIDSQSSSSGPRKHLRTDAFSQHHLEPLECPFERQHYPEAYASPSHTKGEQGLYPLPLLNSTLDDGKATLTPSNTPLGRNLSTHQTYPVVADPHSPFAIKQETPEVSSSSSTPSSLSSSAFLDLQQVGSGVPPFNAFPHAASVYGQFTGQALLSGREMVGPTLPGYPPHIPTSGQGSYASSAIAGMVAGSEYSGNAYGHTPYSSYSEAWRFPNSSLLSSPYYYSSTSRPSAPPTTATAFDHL

[19] = Luminescence Cell-Based Dose Retest to Confirm Inhibitors of Cancer Stem Cells. [Related pubchem assays (depositor defined):AID2717, AID2721]; type: functional; conditions: Homo sapiens
[20] = system: Jurkat; assay: antigen receptor-induced NF-kB inhibitors, dose response, Jurkat, luciferase reporter, luminescence, B- and T-cell (AID 489004); type: functional, cell-based; conditions: Homo sapiens;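 further: NF-kB luciferase reporter Jurkat cells stimulated with PMA plus ionomycin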
[21] = cytotoxicity in HEK-293T NF-kB-Luc cells, dose response, cytotoxicity control for B/T-cell NF-kB inhibitor project, cell-based, uHTS hits (AID 489019); type: functional;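 further: IC50 reflects cytotoxicity as loss of cell viability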
[22] = C. albicans growth with fluconazole, confirmation, fluorescence, retest (AID 2467); type: functional, cell-based
[23] = NIH-3T3 fibroblast cytotoxicity, dose response, cytotoxicity control, cell-based, fluorescence, Alamar Blue, secondary assay (AID 2327); type: functional;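 further: NIH-3T3 mouse fibroblasts cultured with fluconazole at 8 µg/mL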
[24] = biological target: Serine/threonine-protein phosphatase (Candida dubliniensis (strain CD36 / CBS 7987 / NCPF 3949 / NRRLY-17841) (Yeast), UniProt B9W6M3); assay: calcineurin pathway inhibitors in yeast reporter, dose response, S. cerevisiae, CDRE-lacZ, luminescence, secondary (AID 2388); type: functional, cell-based;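 further: yeast reporter cells carrying a calcineurin-responsive lacZ construct stimulated with calcium chloride; luminescent beta-galactosidase reporter signal in whole cells rather than isolated phosphatase activity; potency for inhibition where a drop in reporter signal means calcineurin blockade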
Sequence of Serine/threonine-protein phosphatase (B9W6M3 whole entry): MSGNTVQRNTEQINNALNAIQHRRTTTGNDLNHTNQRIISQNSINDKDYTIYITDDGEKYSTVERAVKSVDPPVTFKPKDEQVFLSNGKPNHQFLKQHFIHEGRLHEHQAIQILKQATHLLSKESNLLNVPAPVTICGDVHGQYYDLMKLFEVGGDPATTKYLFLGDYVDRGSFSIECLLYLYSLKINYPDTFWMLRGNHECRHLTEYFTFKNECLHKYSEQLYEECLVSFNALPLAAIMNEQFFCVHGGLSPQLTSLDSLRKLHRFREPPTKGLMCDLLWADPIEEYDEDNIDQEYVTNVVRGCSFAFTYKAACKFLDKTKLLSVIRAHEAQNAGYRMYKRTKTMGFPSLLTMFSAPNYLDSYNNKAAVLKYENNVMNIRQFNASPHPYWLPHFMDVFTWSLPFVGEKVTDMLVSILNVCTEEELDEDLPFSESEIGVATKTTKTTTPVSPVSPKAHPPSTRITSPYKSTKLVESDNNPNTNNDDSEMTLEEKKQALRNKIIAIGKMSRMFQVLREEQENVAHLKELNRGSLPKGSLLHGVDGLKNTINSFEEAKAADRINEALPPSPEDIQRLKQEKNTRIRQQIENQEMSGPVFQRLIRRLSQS

[25] = biological target: ATP-dependent molecular chaperone HSP82 (Candida albicans (strain WO-1) (Yeast), UniProt C4YTQ8); assay: loss of DOC-induced GRE-beta-galactosidase reporter signal, dose response, Hsp90 inhibitor project, S. cerevisiae, luminescence (AID 2400); type: functional, cell-based;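 further: beta-galactosidase luminescence from glucocorticoid response element reporter as proxy for Hsp90 function; inhibitor potency where signal loss means Hsp90 inhibition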
Sequence of ATP-dependent molecular chaperone HSP82 (C4YTQ8 whole entry): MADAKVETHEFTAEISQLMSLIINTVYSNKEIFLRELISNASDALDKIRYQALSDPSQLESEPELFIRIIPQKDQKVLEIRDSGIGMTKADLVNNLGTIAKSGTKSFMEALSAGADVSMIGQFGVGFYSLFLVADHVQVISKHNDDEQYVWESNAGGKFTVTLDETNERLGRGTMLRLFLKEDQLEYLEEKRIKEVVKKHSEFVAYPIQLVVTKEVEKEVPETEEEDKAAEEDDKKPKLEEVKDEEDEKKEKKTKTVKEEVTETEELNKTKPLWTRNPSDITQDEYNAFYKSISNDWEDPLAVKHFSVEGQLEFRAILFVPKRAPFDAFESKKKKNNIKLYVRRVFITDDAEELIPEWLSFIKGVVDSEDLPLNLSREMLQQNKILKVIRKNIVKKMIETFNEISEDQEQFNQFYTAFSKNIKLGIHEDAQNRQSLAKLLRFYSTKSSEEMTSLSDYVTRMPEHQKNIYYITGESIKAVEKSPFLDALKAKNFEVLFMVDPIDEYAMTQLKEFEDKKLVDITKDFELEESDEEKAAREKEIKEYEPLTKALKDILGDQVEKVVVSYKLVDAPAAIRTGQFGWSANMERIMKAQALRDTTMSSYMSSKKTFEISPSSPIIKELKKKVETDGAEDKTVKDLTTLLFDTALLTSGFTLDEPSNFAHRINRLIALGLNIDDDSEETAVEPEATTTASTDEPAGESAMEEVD

[26] = biological target: Dual specificity protein kinase CLK1 (Homo sapiens, UniProt P49759); assay: CLK1 kinase inhibitors, off-target check, dose response, selectivity assay for Dyrk1A inhibitor project, biochemical, cherry-picked samples (AID 588811)
Sequence of Dual specificity protein kinase CLK1 (P49759 whole entry): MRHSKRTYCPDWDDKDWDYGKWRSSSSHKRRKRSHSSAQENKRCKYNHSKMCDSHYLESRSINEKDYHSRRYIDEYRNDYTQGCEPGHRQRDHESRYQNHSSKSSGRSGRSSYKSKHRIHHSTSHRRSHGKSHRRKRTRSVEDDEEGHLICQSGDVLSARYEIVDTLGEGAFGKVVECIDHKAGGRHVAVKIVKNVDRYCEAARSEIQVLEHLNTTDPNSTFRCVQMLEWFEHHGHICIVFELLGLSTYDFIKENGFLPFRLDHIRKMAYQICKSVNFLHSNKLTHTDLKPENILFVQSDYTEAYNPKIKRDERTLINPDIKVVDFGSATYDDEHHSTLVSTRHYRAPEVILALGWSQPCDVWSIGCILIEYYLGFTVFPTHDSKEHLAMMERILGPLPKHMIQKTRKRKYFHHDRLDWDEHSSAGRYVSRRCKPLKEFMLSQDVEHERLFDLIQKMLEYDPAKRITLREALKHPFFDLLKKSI

[27] = biological target: Luciferin 4-monooxygenase (Photinus pyralis, UniProt P08659); assay: Counter Screen for Luciferase-based Assay Positives. [Related pubchem assays: 620, 618, 411 ]
[28] = cells; type: functional, cell-based
[29] = inhibitors of HIV Env-driven cell fusion, dose response, cherry-pick (AID 652057); type: functional, cell-based
[30] = system: HT-1080; assay: cytotoxicity in HT1080 fibrosarcoma cells, cell-based, fluorescence readout (AID 620); type: functional; conditions: Homo sapiens
[31] = inhibitors of firefly luciferase expression or activity, dose response, H4 neuroglioma cells, luminescence (AID 1990); type: functional, cell-based
[32] = inhibitors of SNCA 5'UTR-driven translation, confirmation, luminescence, H4 neuroglioblastoma cells, dose confirmation (AID 2454); type: functional, cell-based;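 further: H4 neuroglioblastoma cells carrying an alpha-synuclein 5'UTR luciferase reporter; potency for inhibition of the luciferase signal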
[33] = biological target: Voltage-dependent T-type calcium channel subunit alpha-1H (Homo sapiens, UniProt O95180); type: functional;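 further: channel activity triggered by adding a high calcium stimulation buffer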
[34] = Luminescence Cell-Based Dose Response HTS to Identify Inhibitors of 5'UTR Stem-Loop Driven Prion Protein mRNA Translation in H4 Neuroglioblastoma Cells. [Related pubchem assays: 1827 (Project Summary), 1813 (Primary HTS)]; type: functional
[35] = biological target: Glyceraldehyde-3-phosphate dehydrogenase (Homo sapiens, UniProt P04406)
[36] = luciferase reporter signal reduction – luminescence, H4-C neuroglioblastoma cells, dose response (AID 2458); type: functional, cell-based;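 further: H4 neuroglioblastoma cells stably carrying a luciferase reporter gene fusion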
[37] = off-target signal loss in HeLa-CEM21 co-culture – HeLa F-luc CTL cells, cherry-picked, counter-screen for HIV-1 Env fusion inhibitor project, dose response (AID 652040); type: functional, cell-based;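 further: potency for signal decrease marking cytotoxic or nonspecific inhibition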
[38] = inhibitors of clade B AD8 Env fusion, dose response, cell-based, cherry-pick (AID 652062); type: functional;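 further: luciferase signal from cell-cell fusion driven by HIV-1 clade B AD8 Env; potency is for inhibitors of fusion seen as a drop in luminescence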
[39] = inhibitors of SNCA 5'UTR-driven reporter translation, confirmation, H4 neuroglioma cells, luminescence (AID 1988); type: functional, cell-based
[40] = ZM109 Env clade C HIV-1 fusion inhibitors, dose response, HeLa effector, CEM target cells, luciferase, cherry-pick (AID 652058); type: functional, cell-based

## COc1ccc(NC(=O)C/C(C)=N/NC(=O)C(=O)Nc2cccc(Cl)c2C)c(OC)c1
[1]
  AC50: 51.6 µM (active)
[2]
  AC50: 16.3 µM (active)

## CCCN(CCC)S(=O)(=O)c1ccc(C(=O)OCCN2C(=O)c3cccc4c(N5CCOCC5)ccc(c34)C2=O)cc1
[3]
  AC50: 21.4 µM (active)
[4]
  IC50: > 64 µM (inactive)
[5]
  AC50: 57.8 µM (active)
[6]
  EC50: 6.32 µM (active)
[7]
  AC50: 7.75 µM (active)

## CC(C)N1CCC(N2CCN(C3CCCCC3)CC2CCO)CC1 (centres undefined)
[1]
  AC50: 16.8 µM (active)
[2]
  AC50: 97 µM (active)

## O=C(c1cccs1)N(Cc1nc(O)c2c3c(sc2n1)CCCC3)C1CCCC1
[8]
  IC50: 13.4 µM (active)
[9]
  CC50: > 25 µM (active)

## CC(C)c1ccc(C(NC(=O)C2CCCCC2)c2ccc3cccnc3c2O)cc1 (centres undefined)
[10]
  IC50: 44.9 µM (inactive)
[11]
  IC50: 4.61 µM (active)
[12]
  IC50: 2.94 µM (active)

## O=C(/C=C1\C(=O)Nc2ccccc21)/C=C1\C(=O)Nc2ccccc21
[8]
  IC50: > 25 µM (active)
[13]
  IC50: 28.6 µM (inactive)
[9]
  CC50: 20 µM (active)
[14]
  AC50: 64.7 µM (active)
[15]
  AC50: 9.5 µM (active)
[16]
  IC50: 1.55 µM (active)
[17]
  AC50: 11.7 µM (active)

## C[C@@H]1O[C@@H](O[C@@H]2C=C3CCC4C(CC[C@]5(C)[C@@H](c6ccc(=O)oc6)CC[C@]45O)[C@@]3(C)CC2)[C@H](O)[C@H](O)[C@H]1O (some centres undefined)
[18]
  AC50: < 0.26 µM (active)
[19]
  AC50: < 0.16 µM (active)
[9]
  CC50: < 0.05 µM (active)
[20]
  IC50: 1.66 µM (active)
[21]
  IC50: > 80 µM (inactive)

## O=C(CC(=O)c1cccc([N+](=O)[O-])c1)Nc1ccccc1Cl
[22]
  EC50: 0.524 µM (active)
[23]
  EC50: > 150 µM (inactive)
[24]
  EC50: > 180 µM (inactive)
[25]
  EC50: > 160 µM (inactive)

## COc1ccc2nc3ccccc3[n+]([O-])c2c1
[3]
  AC50: 30.8 µM (active)
[5]
  AC50: 119 µM (active)
[6]
  EC50: 18.1 µM (active)
[7]
  AC50: 8.81 µM (active)

## CCOC(=O)c1ccc(-c2ccc3ncnc(NCc4ccc(C)o4)c3c2)o1
[26]
  AC50: 2.72 nM (active) and 93.6 nM (active)

## COC(=O)CCn1nnc(-c2ccc(C(C)C)cc2)n1
[27]
  EC50: 2.39 µM (active)
[28]
  EC50: 0.477 µM (active)
[29]
  AC50: < 0.26 µM (active)
[30]
  EC50: > 50 µM (not active)
[31]
  EC50: < 0.1 µM (active)
[32]
  EC50: 0.373 µM (active)
[33]
  EC50: 16.2 µM (active)
[34]
  EC50: < 0.1 µM (active)
[35]
  IC50: > 100 µM (not active)
[20]
  IC50: < 0.16 µM (active)
[36]
  EC50: 0.251 µM (active)
[37]
  AC50: < 0.26 µM (active)
[38]
  AC50: 0.379 µM (active)
[39]
  EC50: < 0.1 µM (active)
[21]
  IC50: > 80 µM (inactive)
[40]
  AC50: < 0.26 µM (active)

## Cc1ccc2nsnc2c1NC(=O)c1ccc([N+](=O)[O-])o1
[10]
  IC50: > 80 µM (inactive)
[11]
  IC50: 37.9 µM (inactive)
[12]
  IC50: 22.7 µM (inactive)
